Measurements: PMC4033217, “Characterization of Novel PI3Kδ Inhibitors as Potential Therapeutics for SLE and Lupus Nephritis in Pre-Clinical Studies” (Frontiers in Immunology, 2014)

Assays:
NZB/W F1 mice [1] = assay: IFNα-accelerated NZB/W F1 mouse SLE model; assay type: in vivo
Method: (§1) All protocols and procedures were conducted according to German animal protection law (Tierschutzgesetz) and were approved by the local veterinarian authorities (Regierungspräsidium, Darmstadt, Germany). Ten-week-old female NZB/W F1 mice (Jackson Laboratories, Bar Harbor, ME, USA) were given a single i.v. injection of 1 × 10^8 IU/100 μl of AdV-IFN-α (adenovirus with mmIfna5_v1 insert, Biofocus, CoA.NL.09.160) in saline or left untreated (sham). Drug treatments were either initiated at 2 weeks (early intervention regimen) or 4 weeks (late intervention regimen) post AdV-IFN-α delivery until the end of the experiment (at 10 weeks). […] Serum and urine samples were collected for anti-dsDNA antibodies (by ELISA) and urinary protein creatinine ratio (UPCR) (measured by ADVIA 1800) determination, respectively, on the days indicated. Proteinuria is defined as UPCR >3.

NZB/W F1 mice [2] = assay: Lymphocyte subsets in spleen at end of treatment, accelerated NZB/W F1 SLE model; assay type: in vivo, mouse; details: MMF 300 mg/kg once daily, early intervention
Method: as §1

CD69 on B220+ B cells = assay: Ex vivo anti-IgD-induced CD69 up-regulation in the SLE model; design: species or system mouse; details: once daily for 2 weeks, 1 h after last dosing
BXSB mice = system: BXSB mice; design: method as in PMID 24445960; details: cited from earlier work

SMILES | Protection against proteinuria (NZB/W F1 mice [1]; early intervention, MSC2360844 66 mg/kg or MMF 300 mg/kg once daily oral) | Serum anti-dsDNA IgG (NZB/W F1 mice [1]; early treatment, neither statistically significant nor dose-dependent) | No. of cells (×10^6) (mean ± SD): B220^+CD19^+ (total B cells) (NZB/W F1 mice [2]) | No. of cells (×10^6) (mean ± SD): CD3^+ (total T-cells) (NZB/W F1 mice [2]) | No. of cells (×10^6) (mean ± SD): CD138^+ (plasma cells) (NZB/W F1 mice [2]) | No. of cells (×10^6) (mean ± SD): GL-7^+IgG^− (GC B cells) (NZB/W F1 mice [2]) | No. of cells (×10^6) (mean ± SD): IgG^+ (class-switched B cells) (NZB/W F1 mice [2]) | No. of cells (×10^6) (mean ± SD): Total splenocytes (NZB/W F1 mice [2]) | No. of cells (×10^6) (mean ± SD): activated CD4^+ T-cells (NZB/W F1 mice [2]) | No. of cells (×10^6) (mean ± SD): activated CD8^+ T-cells (NZB/W F1 mice [2]) | Ex vivo anti-IgD-induced CD69 surface expression on B220+ B cells (CD69 on B220+ B cells) | Autoantibody production and kidney pathology (BXSB mice)
COc1c(C)c2c(c(O)c1C/C=C(\C)CCC(=O)OCCN1CCOCC1)C(=O)OC2 [MMF, mycophenolate mofetil] | almost completely protected against proteinuria | tendency of serum anti-dsDNA IgG reduction | 20.65 (±6.54) ×10^6 | 21.05 (±6.83) ×10^6 | 0.43 (±0.28) ×10^6 | 0.23 (±0.16) ×10^6 | 0.17 (±0.05) ×10^6 | 46.50 (±25.17) ×10^6 | 5.24 (±2.05) ×10^6 | 0.23 (±0.09) ×10^6 | indistinguishable from untreated mice | –
Cc1ccccc1-n1c(Cn2cnc3c(N)ncnc32)nc2cccc(C)c2c1=O [IC87114] | – | – | – | – | – | – | – | – | – | – | – | decreases autoantibody production and kidney pathology
